Laboratory results: patent publication US20170355705A1 (GlaxoSmithKline Intellectual Property (No.2) Limited, priority 2014, published 2017)

Molecular target: T1, SIRT1 (Homo sapiens, UniProt Q96EB6)
T1 sequence (Q96EB6 1-747): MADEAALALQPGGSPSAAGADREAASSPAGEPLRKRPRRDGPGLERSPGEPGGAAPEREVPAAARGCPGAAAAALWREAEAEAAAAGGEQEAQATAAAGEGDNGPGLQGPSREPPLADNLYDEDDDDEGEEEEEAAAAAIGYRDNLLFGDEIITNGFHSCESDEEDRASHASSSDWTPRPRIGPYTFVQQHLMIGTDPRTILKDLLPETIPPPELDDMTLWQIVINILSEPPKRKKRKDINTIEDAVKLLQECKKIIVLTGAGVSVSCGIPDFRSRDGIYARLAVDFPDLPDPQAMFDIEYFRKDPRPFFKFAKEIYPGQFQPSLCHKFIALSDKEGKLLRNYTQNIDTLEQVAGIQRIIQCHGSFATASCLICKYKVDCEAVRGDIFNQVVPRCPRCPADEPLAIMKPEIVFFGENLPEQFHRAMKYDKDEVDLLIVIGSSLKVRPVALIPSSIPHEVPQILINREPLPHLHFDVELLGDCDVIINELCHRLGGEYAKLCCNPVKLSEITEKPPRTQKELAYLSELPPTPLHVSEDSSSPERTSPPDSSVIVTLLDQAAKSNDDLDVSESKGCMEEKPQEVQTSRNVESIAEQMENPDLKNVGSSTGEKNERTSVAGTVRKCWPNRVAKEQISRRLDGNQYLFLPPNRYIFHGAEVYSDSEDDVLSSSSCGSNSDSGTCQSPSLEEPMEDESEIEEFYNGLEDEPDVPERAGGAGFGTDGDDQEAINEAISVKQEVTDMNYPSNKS
Test: Trp mass spectrometry assay of SIRT1 activity (EC1.5, percent maximum activation)
Type: biochemical
Conditions: Trp mass spectrometry assay; for TRP Activity (EC1.5): EC1.5 = concentration giving 150% activation of SIRT1
Excerpt: Mass spectrometry based assays were used to identify modulators of SIRT1 activity. […] The peptide was labeled with the fluorophore 5TMR (excitation 540 nm/emission 580 nm) at the C-terminus. The sequence of the peptide substrate was based on p53 with several modifications. In addition, the methionine residue naturally present in the sequence was replaced with the norleucine because the methionine may be susceptible to oxidation during synthesis and purification.
The Trp mass spectrometry assay was conducted as follows. […] The SIRT1 protein was obtained by cloning the SirT1 gene into a T7-promoter containing vector, which was then expressed in BL21(DE3) bacterial cells and purified as described in further detail below. Test compound was added at varying concentrations to this reaction mixture and the resulting reactions were monitored. After the 25 minute incubation with SIRT1, 10 μL of 10% formic acid was added to stop the reaction. The resulting reactions were sealed and frozen for later mass spec analysis. The relative SIRT1 activity was then determined by measuring the amount of O-acetyl-ADP-ribose (OAADPR) formed (or, alternatively, the amount of deacetylated Trp peptide generated) by the NAD-dependent sirtuin deacetylation reaction in the presence of varying concentrations of the test compound versus control reactions lacking the test compound. The degree to which the test agent activated deacetylation by SIRT1 was expressed as EC1.5 (i.e., the concentration of compound required to increase SIRT1 activity by 50% over the control lacking test compound), and Percent Maximum Activation (i.e., the maximum activity relative to control (100%) obtained for the test compound).
This time point was the same as that used for test compounds and, within the linear range, the endpoint represents a change in velocity.
For the above assay, SIRT1 protein was expressed and purified as follows. The SirT1 gene was cloned into a T7-promoter containing vector and transformed into BL21(DE3). The protein was expressed by induction with 1 mM IPTG as an N-terminal His-tag fusion protein at 18° C. overnight and harvested at 30,000×g. Cells were lysed with lysozyme in lysis buffer (50 mM Tris-HCl, 2 mM Tris[2-carboxyethyl]phosphine (TCEP), 10 μM ZnCl2, 200 mM NaCl) and further treated with sonication for 10 min for complete lysis. The protein was purified over a Ni-NTA column (Amersham) and fractions containing pure protein were pooled, concentrated and run over a sizing column (Sephadex S200 26/60 global). The peak containing soluble protein was collected and run on an Ion-exchange column (MonoQ). Gradient elution (200 mM-500 mM NaCl) yielded pure protein. This protein was concentrated and dialyzed against dialysis buffer (20 mM Tris-HCl, 2 mM TCEP) overnight. The protein was aliquoted and frozen at −80° C. until further use.
“NT” means not tested; “ND” means not determinable.

[1] = 0.5 μM peptide substrate, 120 μM βNAD+, 10 nM SIRT1, 25 minutes at 25° C.
[2] = percent maximum activation of SIRT1

Row | Structure (SMILES) | TRP Activity (EC1.5, concentration of test compound that results in 150% activation of SIRT1) [1] | TRP MAX RESP (percent maximum fold activation) [1] | TRP Activity (EC1.5) | TRP MAX RESP (percent maximum fold activation) [2]
1 | Cc1cc(-c2nc3c(cc2Cl)N2CC[C@@H](C2)N3C(=O)Nc2cc(OC[C@H](O)CO)ncn2)ccn1 [Example 95, (4S)-8-chloro-N-(6-((R)-2,3-dihydroxypropoxy)pyrimidin-4-yl)-7-(2-methylpyridin-4-yl)-3,4-dihydro-1,4-methanopyrido[2,3-b][1,4]diazepine-5(2H)-carboxamide] | – | – | C (EC1.5>25 μM) | B (Fold Activation <150%)
2 | O=C(Nc1ccnc(OC[C@@H](O)CO)c1)N1c2nc(-c3cnn(C4CC4)c3)c(Cl)cc2N2CC[C@H]1C2 [Example 102, (4S)-8-chloro-7-(1-cyclopropyl-1H-pyrazol-4-yl)-N-(2-((S)-2,3-dihydroxypropoxy)pyridin-4-yl)-3,4-dihydro-1,4-methanopyrido[2,3-b][1,4]diazepine-5(2H)-carboxamide] | – | – | B (EC1.5 1-25 μM) | A (Fold activation ≧150%)
3 | Cc1ccc(-c2ccc3c(n2)N(C(=O)Nc2cccc4cnccc24)[C@H]2CCN3C2)cn1 [Example 209, (4S)-N-(isoquinolin-5-yl)-7-(6-methylpyridin-3-yl)-3,4-dihydro-1,4-methanopyrido[2,3-b][1,4]diazepine-5(2H)-carboxamide] | B (EC1.5 1-25 μM) | A (Fold activation ≧150%) | – | –
4 | O=C(Nc1cncc(OC[C@@H](O)CO)n1)N1c2nc(-c3cccc(C(F)(F)F)c3)ccc2N2CC[C@H]1C2 [Example 123, (4S)-N-(6-((S)-2,3-dihydroxypropoxy)pyrazin-2-yl)-7-(3-(trifluoromethyl)phenyl)-3,4-dihydro-1,4-methanopyrido[2,3-b][1,4]diazepine-5(2H)-carboxamide] | – | – | A (EC1.5<1 μM) | A (Fold activation ≧150%)
5 | O=C(Nc1ccccn1)N1c2nc(-c3cccc(C(F)(F)F)c3)c(Cl)cc2N2CC[C@H]1C2 [Example 35, (4S)-8-chloro-N-(pyridin-2-yl)-7-(3-(trifluoromethyl)phenyl)-3,4-dihydro-1,4-methanopyrido[2,3-b][1,4]diazepine-5(2H)-carboxamide] | – | – | A (EC1.5<1 μM) | A (Fold activation ≧150%)
6 | O=C(Nc1ccc(OC[C@H](O)CO)nc1)N1c2nc(-c3cccc(C(F)(F)F)c3)c(Cl)cc2N2CC[C@H]1C2 [Example 77, (4S)-8-chloro-N-(6-((R)-2,3-dihydroxypropoxy)pyridin-3-yl)-7-(3-(trifluoromethyl)phenyl)-3,4-dihydro-1,4-methanopyrido[2,3-b][1,4]diazepine-5(2H)-carboxamide] | – | – | A (EC1.5<1 μM) | A (Fold activation ≧150%)
7 | Cc1cc(-c2ccc3c(n2)N(C(=O)Nc2ccc4c(c2)OCCCO4)[C@H]2CCN3C2)ccn1 [Example 126, (4S)-N-(3,4-dihydro-2H-benzo[b][1,4]dioxepin-7-yl)-7-(2-methylpyridin-4-yl)-3,4-dihydro-1,4-methanopyrido[2,3-b][1,4]diazepine-5(2H)-carboxamide] | – | – | A (EC1.5<1 μM) | A (Fold activation ≧150%)
8 | O=C(Nc1nccc(OC[C@@H](O)CO)n1)N1c2nc(-c3cccc(C(F)(F)F)c3)c(Cl)cc2N2CC[C@H]1C2 [Example 57, (4S)-8-chloro-N-(4-((S)-2,3-dihydroxypropoxy)pyrimidin-2-yl)-7-(3-(trifluoromethyl)phenyl)-3,4-dihydro-1,4-methanopyrido[2,3-b][1,4]diazepine-5(2H)-carboxamide] | – | – | A (EC1.5<1 μM) | A (Fold activation ≧150%)

Continued, values first:

Row | TRP Activity (EC1.5, concentration of test compound that results in 150% activation of SIRT1) [1] | TRP MAX RESP (percent maximum fold activation) [1] | TRP Activity (EC1.5) | TRP MAX RESP (percent maximum fold activation) [2] | Structure (SMILES)
9 | B (EC1.5 1-25 μM) | A (Fold activation ≧150%) | – | – | O=C(Nc1cnccn1)N1c2nc(-c3ccnc(CO)c3)ccc2N2CC[C@H]1C2 [Example 218, (4S)-7-(2-(Hydroxymethyl)pyridin-4-yl)-N-(pyrazin-2-yl)-3,4-dihydro-1,4 methanopyrido[2,3-b][1,4]diazepine-5(2H)-carboxamide]
10 | – | – | A (EC1.5<1 μM) | A (Fold activation ≧150%) | O=C(Nc1cnccn1)N1c2nc(N3CCC(C(F)(F)F)CC3)ccc2N2CC[C@H]1C2 [Example 191, (4S)-N-(pyrazin-2-yl)-7-(4-(trifluoromethyl)piperidin-1-yl)-3,4-dihydro-1,4-methanopyrido[2,3-b][1,4]diazepine-5(2H)-carboxamide]
11 | B (EC1.5 1-25 μM) | A (Fold activation ≧150%) | – | – | Cc1cc(C)c(-c2ccc3c(n2)N(C(=O)Nc2cccnc2)[C@H]2CCN3C2)cn1 [Example 236, (4S)-7-(4,6-dimethylpyridin-3-yl)-N-(pyridin-3-yl)-3,4-dihydro-1,4-methano pyrido[2,3-b][1,4]diazepine-5(2H)-carboxamide]
12 | – | – | C (EC1.5>25 μM) | B (Fold Activation <150%) | Cc1cc(-c2ccc3c(n2)N(C(=O)N[C@H](C)c2ccccn2)[C@H]2CCN3C2)ccn1 [Example 169, (4S)-7-(2-methylpyridin-4-yl)-N-((R)-1-(pyridin-2-yl)ethyl)-3,4-dihydro-1,4-methanopyrido[2,3-b][1,4]diazepine-5(2H)-carboxamide]
13 | – | – | A (EC1.5<1 μM) | A (Fold activation ≧150%) | O=C(Nc1cnccn1)N1c2nc(-c3ccnc(C4CC4)c3)ccc2N2CC[C@H]1C2 [Example 136, (4S)-7-(2-cyclopropylpyridin-4-yl)-N-(pyrazin-2-yl)-3,4-dihydro-1,4-methanopyrido[2,3-b][1,4]diazepine-5(2H)-carboxamide]
14 | – | – | B (EC1.5 1-25 μM) | A (Fold activation ≧150%) | Cc1cc(-c2ccc3c(n2)N(C(=O)NC2CCC2)[C@H]2CCN3C2)ccn1 [Example 183, (4S)-N-cyclobutyl-7-(2-methylpyridin-4-yl)-3,4-dihydro-1,4-methanopyrido[2,3-b][1,4]diazepine-5(2H)-carboxamide]
15 | – | – | B (EC1.5 1-25 μM) | A (Fold activation ≧150%) | Cc1cc(-c2nc3c(cc2Br)N2CC[C@@H](C2)N3C(=O)Nc2cccnc2)ccn1 [Example 12, (4S)-8-bromo-7-(2-methylpyridin-4-yl)-N-(pyridin-3-yl)-3,4-dihydro-1,4-methanopyrido[2,3-b][1,4]diazepine-5(2H)-carboxamide]
16 | – | A (Fold activation ≧150%) | – | – | N#Cc1ccc(-c2ccc3c(n2)N(C(=O)Nc2cccnc2)[C@H]2CCN3C2)cn1 [Example 245]
17 | – | – | B (EC1.5 1-25 μM) | A (Fold activation ≧150%) | CNc1cc(-c2ccc3c(n2)N(C(=O)Nc2cnccn2)[C@H]2CCN3C2)ccn1 [Example 144, (4S)-7-(2-(methylamino)pyridin-4-yl)-N-(pyrazin-2-yl)-3,4-dihydro-1,4-methanopyrido[2,3-b][1,4]diazepine-5(2H)-carboxamide]
